These results are taken from patent publication US11084829B2, “Ubiquitin-specific-processing protease 7 (USP7) modulators and uses thereof” (RAPT THERAPEUTICS, INC., priority 2018, dated 2021).

pIC50: −log10 of the molar value. Where only a bound is given, the exact number is not on record here.

The test has as its target USP7 (Homo sapiens, UniProt Q93009). As to the kind of experiment: USP7 inhibitory potency (IC50). In kind it is biochemical. The protocol: Activity for compounds described herein is provided in Table 2, wherein potency levels are provided as follows: (Potency: USP7 IC50: A<0.01 μM; B=0.01-0.1 μM; C=>0.1 μM.

USP7, sequence (Q93009 whole entry): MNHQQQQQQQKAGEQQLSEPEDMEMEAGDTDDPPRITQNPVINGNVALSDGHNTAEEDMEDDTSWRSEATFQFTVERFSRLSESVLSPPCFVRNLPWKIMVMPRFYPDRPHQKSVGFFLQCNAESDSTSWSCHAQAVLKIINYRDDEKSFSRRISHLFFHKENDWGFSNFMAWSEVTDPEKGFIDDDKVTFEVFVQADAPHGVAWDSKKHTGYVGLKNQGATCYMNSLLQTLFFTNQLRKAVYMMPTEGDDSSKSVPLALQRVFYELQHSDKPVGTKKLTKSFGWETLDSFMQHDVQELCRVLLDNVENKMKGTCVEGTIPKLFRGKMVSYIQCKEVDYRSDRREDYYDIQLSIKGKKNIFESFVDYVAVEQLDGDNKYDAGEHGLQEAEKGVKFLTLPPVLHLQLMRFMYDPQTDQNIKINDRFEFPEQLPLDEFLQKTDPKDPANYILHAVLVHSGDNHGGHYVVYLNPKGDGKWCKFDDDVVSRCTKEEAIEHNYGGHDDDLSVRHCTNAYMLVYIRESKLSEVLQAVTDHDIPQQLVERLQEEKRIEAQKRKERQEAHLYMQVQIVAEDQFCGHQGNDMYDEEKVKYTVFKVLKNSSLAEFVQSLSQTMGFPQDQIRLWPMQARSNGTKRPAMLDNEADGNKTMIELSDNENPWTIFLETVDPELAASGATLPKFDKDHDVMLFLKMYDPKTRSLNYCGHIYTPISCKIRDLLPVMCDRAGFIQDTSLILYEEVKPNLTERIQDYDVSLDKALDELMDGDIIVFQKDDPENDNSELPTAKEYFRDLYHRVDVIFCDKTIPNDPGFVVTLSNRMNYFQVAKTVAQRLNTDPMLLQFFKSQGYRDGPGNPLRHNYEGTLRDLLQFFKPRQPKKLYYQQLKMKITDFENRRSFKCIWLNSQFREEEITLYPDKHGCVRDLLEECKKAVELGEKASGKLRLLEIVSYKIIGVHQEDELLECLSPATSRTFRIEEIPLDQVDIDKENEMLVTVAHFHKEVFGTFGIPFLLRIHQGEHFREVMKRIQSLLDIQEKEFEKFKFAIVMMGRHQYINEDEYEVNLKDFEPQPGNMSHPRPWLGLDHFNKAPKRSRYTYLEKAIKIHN

Regarding `Cc1cc(Cl)cc(-c2ncnc3cc(CN4C(=O)CCC4C)sc23)c1C[C@@H]1CNCC(C)(C)O1` (stereo partly drawn) [Example 241, 1-((4-(5-chloro-2-(((R)-6,6-dimethylmorpholin-2-yl)methyl)-3-methylphenyl)thieno[3,2-d]pyrimidin-6-yl)methyl)-5-methylpyrrolidin-2-one], the pIC50 was 7.00 to 8.00. Then `Cc1cc(Cl)cc(-c2ccnc3cc(CN4C(=O)C5C(C4=O)C5(C)C)sc23)c1CC1OCCNC1=O` (stereo not drawn) [Example 101, 3-((7-(5-chloro-3-methyl-2-((3-oxomorpholin-2-yl)methyl)phenyl)thieno[3,2-b]pyridin-2-yl)methyl)-6,6-dimethyl-3-azabicyclo[3.1.0]hexane-2,4-dione], with 7.00 to 8.00.

In turn, `Cc1cc(Cl)cc(-c2ncnc3cc(CN4C(=O)CC[C@H]4C(F)(F)F)sc23)c1CN1[C@@H](C)CNC[C@@H]1C` [Example 90, (S)-1-((4-(5-chloro-2-(((2S,6S)-2,6-dimethylpiperazin-1-yl)methyl)-3-methylphenyl)thieno[3,2-d]pyrimidin-6-yl)methyl)-5-(trifluoromethyl)pyrrolidin-2-one] showed a negative logarithm of the IC50 (pIC50) of less than 7.00. Then `Cc1cc(Cl)cc(-c2ncnc3cc(CN4C(=O)CCN(C)C4=O)sc23)c1C[C@H]1CNCC(C)(C)O1` [Example 214, (S)-3-((4-(5-chloro-2-((6,6-dimethylmorpholin-2-yl)methyl)-3-methylphenyl)thieno[3,2-d]pyrimidin-6-yl)methyl)-1-methyldihydropyrimidine-2,4(1H,3H)-dione], with 7.00 to 8.00; and `Cc1cc(Cl)cc(-c2ccnc3cc(Cn4c(=O)ccn(CC(F)(F)F)c4=O)sc23)c1CC1CNCCO1` (stereo not drawn) [Example 109, 3-((7-(5-chloro-3-methyl-2-(morpholin-2-ylmethyl)phenyl)thieno[3,2-b]pyridin-2-yl)methyl)-1-(2,2,2-trifluoroethyl)pyrimidine-2,4(1H,3H)-dione], with greater than 8.00. Then `Cc1cc(Cl)cc(-c2ncnc3cc(CN4C(=O)CCC4C(F)(F)F)sc23)c1CC1CNCC(C)(C)O1` (stereo not drawn) [Example 194, 1-((4-(5-chloro-2-((6,6-dimethylmorpholin-2-yl)methyl)-3-methylphenyl)thieno[3,2-d]pyrimidin-6-yl)methyl)-5-(trifluoromethyl)pyrrolidin-2-one], with greater than 8.00; and `Cc1cc(Cl)cc(-c2ncnc3cc(CN4C(=O)CCC4=O)sc23)c1CN1C[C@@H](C)NC[C@@H]1C` [Example 68, 1-((4-(5-chloro-2-(((2S,5R)-2,5-dimethylpiperazin-1-yl)methyl)-3-methylphenyl)thieno[3,2-d]pyrimidin-6-yl)methyl)pyrrolidine-2,5-dione], with 7.00 to 8.00; and `Cc1cc(Cl)cc(-c2ccnc3cc(CN4C(=O)C5CC5C4=O)sc23)c1CN1C[C@H](C)NC[C@@H]1C` (stereo partly drawn) [Example 33, 3-((7-(5-chloro-2-(((2S,5 S)-2,5-dimethylpiperazin-1-yl)methyl)-3-methylphenyl)thieno[3,2-b]pyridin-2-yl)methyl)-3-azabicyclo[3.1.0]hexane-2,4-dione], with greater than 8.00.

The compound `Cc1cc(Cl)cc(-c2ccnc3cc(CN4C(=O)C5CC5C4=O)sc23)c1C[C@@H]1CN[C@@H](C)CO1` (stereo partly drawn) [Example 98, 3-((7-(5-chloro-3-methyl-2-((5-methylmorpholin-2-yl)methyl)phenyl)thieno[3,2-b]pyridin-2-yl)methyl)-3-azabicyclo[3.1.0]hexane-2,4-dione] gave a pIC50 greater than 8.00.

Turning to `Cc1cc(Cl)cc(-c2ncnc3cc(CN4C(=O)NCC(C)C4=O)sc23)c1C[C@@H]1CNCCO1` (stereo partly drawn) [Example 249, 3-((4-(5-chloro-3-methyl-2-(((R)-morpholin-2-yl)methyl)phenyl)thieno[3,2-d]pyrimidin-6-yl)methyl)-5-methyldihydropyrimidine-2,4(1H,3H)-dione], the negative-log IC50 (pIC50) was greater than 8.00.

In turn, `Cc1cc(Cl)cc(-c2ncnc3cc(CN4C(=O)COCC4=O)sc23)c1CC1CNCCO1` (stereo not drawn) [Example 169, 4-((4-(5-chloro-3-methyl-2-(morpholin-2-ylmethyl)phenyl)thieno[3,2-d]pyrimidin-6-yl)methyl)morpholine-3,5-dione] gave a negative logarithm of the IC50 (pIC50) greater than 8.00. To `CCN1CC(=O)N(Cc2cc3ncnc(-c4cc(Cl)cc(C)c4CN4C[C@@H](C)NC[C@@H]4C)c3s2)C1=O` [Example 83, 3-((4-(5-chloro-2-(((2S,5R)-2,5-dimethylpiperazin-1-yl)methyl)-3-methylphenyl)thieno[3,2-d]pyrimidin-6-yl)methyl)-1-ethylimidazolidine-2,4-dione] belongs greater than 8.00. Then `Cc1cc(Cl)cc(-c2ncnc3cc(CN4C(=O)C5CC5C4=O)sc23)c1CC1CNCCOC1` (stereo not drawn) [Example 185, 3-((4-(2-((1,4-oxazepan-6-yl)methyl)-5-chloro-3-methylphenyl)thieno[3,2-d]pyrimidin-6-yl)methyl)-3-azabicyclo[3.1.0]hexane-2,4-dione], with 7.00 to 8.00; and `Cc1cc(Cl)cc(-c2ccnc3cc(CN4C(=O)CCC4=O)sc23)c1CN1[C@@H](C)CN(C)C[C@@H]1C` [Example 29, 1-((7-(5-chloro-3-methyl-2-(((2S,6S)-2,4,6-trimethylpiperazin-1-yl)methyl)phenyl)thieno[3,2-b]pyridin-2-yl)methyl)pyrrolidine-2,5-dione], with greater than 8.00; and `Cc1cc(Cl)cc(-c2ncnc3cc(CN4C(=O)CCN(C)C4=O)sc23)c1CC1CNCC2(COC2)O1` (stereo not drawn) [Example 238, 3-((4-(2-((2,5-dioxa-8-azaspiro[3.5]nonan-6-yl)methyl)-5-chloro-3-methylphenyl)thieno[3,2-d]pyrimidin-6-yl)methyl)-1-methyldihydropyrimidine-2,4(1H,3H)-dione], with greater than 8.00.

`Cc1cc(Cl)cc(-c2ncnc3cc(CN4C(=O)C5C(C4=O)C5(C)C)sc23)c1CN1C[C@@H](C)NC[C@@H]1C` (stereo partly drawn) [Example 67, 3-((4-(5-chloro-2-(((2S,5R)-2,5-dimethylpiperazin-1-yl)methyl)-3-methylphenyl)thieno[3,2-d]pyrimidin-6-yl)methyl)-6,6-dimethyl-3-azabicyclo[3.1.0]hexane-2,4-dione] gave a negative logarithm of the IC50 (pIC50) greater than 8.00. In turn, `Cc1cc(Cl)cc(-c2ncnc3cc(CN4C(=O)C5CC5C4=O)sc23)c1C[C@H]1OCCN[C@@H]1C` (stereo partly drawn) [Example 160, 3-((4-(5-chloro-3-methyl-2-(((2R,3R)-3-methylmorpholin-2-yl)methyl)phenyl)thieno[3,2-d]pyrimidin-6-yl)methyl)-3-azabicyclo[3.1.0]hexane-2,4-dione] gave a pIC50 greater than 8.00.

Turning to `Cc1cc(Cl)cc(-c2ccnc3cc(CN4C(=O)C5C(C4=O)C5(C)C)sc23)c1CN1CCNCC1` (stereo not drawn) [Example 6, 3-((7-(5-chloro-3-methyl-2-(piperazin-1-ylmethyl)phenyl)thieno[3,2-b]pyridin-2-yl)methyl)-6,6-dimethyl-3-azabicyclo[3.1.0]hexane-2,4-dione], the negative-log IC50 (pIC50) is 7.00 to 8.00. Compound `Cc1cc(Cl)cc(-c2ccnc3cc(CN4C(=O)C5CC5C4=O)sc23)c1C[C@@H]1CNC[C@@H](C)O1` (stereo partly drawn) [Example 99, 3-((7-(5-chloro-3-methyl-2-(((2R,6R)-6-methylmorpholin-2-yl)methyl)phenyl)thieno[3,2-b]pyridin-2-yl)methyl)-3-azabicyclo[3.1.0]hexane-2,4-dione] showed a negative-log IC50 (pIC50) greater than 8.00. To `Cc1cc(Cl)cc(-c2ncnc3cc(CN4C(=O)C5CC5C4=O)sc23)c1C[C@H]1CNCC(C)(C)O1` (stereo partly drawn) [Example 213, 3-((4-(5-chloro-2-(((S)-6,6-dimethylmorpholin-2-yl)methyl)-3-methylphenyl)thieno[3,2-d]pyrimidin-6-yl)methyl)-3-azabicyclo[3.1.0]hexane-2,4-dione] belongs 7.00 to 8.00; to `Cc1cc(Cl)cc(-c2ncnc3cc(CN4C(=O)N(C)C(C)(C)C4=O)sc23)c1C[C@@H]1CNCC(C)(C)O1` [Example 233, (R)-3-((4-(5-chloro-2-((6,6-dimethylmorpholin-2-yl)methyl)-3-methylphenyl)thieno[3,2-d]pyrimidin-6-yl)methyl)-1,5,5-trimethylimidazolidine-2,4-dione], greater than 8.00. As for `Cc1cc(Cl)cc(-c2ncnc3cc(Cn4c(=O)c(F)cn(C(C)C)c4=O)sc23)c1CC1CNCCO1` (stereo not drawn) [Example 168, 3-((4-(5-chloro-3-methyl-2-(morpholin-2-ylmethyl)phenyl)thieno[3,2-d]pyrimidin-6-yl)methyl)-5-fluoro-1-isopropylpyrimidine-2,4(1H,3H)-dione], the pIC50 was greater than 8.00.

Compound `Cc1cc(Cl)cc(-c2ncnc3cc(CN4C(=O)C5CC5C4=O)sc23)c1C[C@H]1CN(C(=O)C(F)(F)F)CCO1` (stereo partly drawn) [Example 198, 3-((4-(5-chloro-3-methyl-2-(((S)-4-(2,2,2-trifluoroacetyl)morpholin-2-yl)methyl)phenyl)thieno[3,2-d]pyrimidin-6-yl)methyl)-3-azabicyclo[3.1.0]hexane-2,4-dione] showed a pIC50 of less than 7.00. To `Cc1cc(Cl)cc(-c2ncnc3cc(CN4C(=O)C5CC5C4=O)sc23)c1CN1CCN(C)C[C@@H]1C` (stereo partly drawn) [Example 55, 3-((4-(5-chloro-2-(((S)-2,4-dimethylpiperazin-1-yl)methyl)-3-methylphenyl)thieno[3,2-d]pyrimidin-6-yl)methyl)-3-azabicyclo[3.1.0]hexane-2,4-dione] belongs 7.00 to 8.00. To `Cc1cc(Cl)cc(-c2ccnc3cc(CN4C(=O)CCC4=O)sc23)c1CN1CCNC[C@@H]1C` [Example 8, (S)-1-((7-(5-chloro-3-methyl-2-((2-methylpiperazin-1-yl)methyl)phenyl)thieno[3,2-b]pyridin-2-yl)methyl)pyrrolidine-2,5-dione] belongs greater than 8.00; to `Cc1cc(Cl)cc(-c2ccnc3cc(CN4C(=O)CCC4=O)sc23)c1CC1CNCC(C)(C)O1` (stereo not drawn) [Example 119, 1-((7-(5-chloro-2-((6,6-dimethylmorpholin-2-yl)methyl)-3-methylphenyl)thieno[3,2-b]pyridin-2-yl)methyl)pyrrolidine-2,5-dione], greater than 8.00; to `O=C1C2CC2C(=O)N1Cc1cc2nccc(-c3cc(Cl)cc(Cl)c3CC3CNCC4(CCC4)O3)c2s1` (stereo not drawn) [Example 150, 3-((7-(2-((5-oxa-8-azaspiro[3.5]nonan-6-yl)methyl)-3,5-dichlorophenyl)thieno[3,2-b]pyridin-2-yl)methyl)-3-azabicyclo[3.1.0]hexane-2,4-dione], greater than 8.00.

One may read the pIC50 as −log10 of the IC50, conventionally taken in molar units. High values mean a low IC50, low ones a high IC50.
